Source: BigSolDB 2.1

O=C(O)c1cc([N+](=O)[O-])cc([N+](=O)[O-])c1
solubility (mole fraction)
Settings	283.15 K	288.15 K	293.15 K	298.15 K	303.15 K	308.15 K	313.15 K	318.15 K	323.15 K
in acetonitrile	0.00815	0.00958	0.011	0.0129	0.0148	0.0162	0.019	0.0218	0.0236
in ethanol	0.0264	0.0306	0.0346	0.0396	0.0456	0.0524	0.0593	0.07	0.078
in ethyl acetate	0.0349	0.0373	0.0399	0.0426	0.0458	0.0495	0.0533	0.0574	0.0627
in isobutanol	0.00648	0.00862	0.0129	0.0171	0.0223	0.0265	0.031	0.0376	0.0466
in isopropanol	0.014	0.0167	0.0194	0.0255	0.0315	0.0381	0.0459	0.0548	0.0661
in methanol	0.0321	0.0399	0.0454	0.0502	0.059	0.0669	0.0767	0.0843	0.0943
in methyl acetate	0.0378	0.0413	0.0456	0.0498	0.054	0.0582	0.0623	0.0664	0.0713
in n-butanol	0.0138	0.0163	0.0214	0.0273	0.0329	0.0386	0.0458	0.0537	0.0622
in n-butyl acetate	0.0257	0.0262	0.0281	0.0327	0.0341	0.04	0.0451	0.0504	0.0562
in n-pentanol	0.0153	0.0173	0.0223	0.0273	0.0321	0.0379	0.0456	0.0531	0.0604
in n-propanol	0.0173	0.019	0.0224	0.0274	0.0332	0.0397	0.0457	0.0549	0.065
in n-propyl acetate	0.0281	0.0296	0.0318	0.0354	0.04	0.0443	0.0494	0.0548	0.0609
in sec-butanol	0.0139	0.0159	0.0201	0.0263	0.0324	0.0414	0.0503	0.0628	0.0777
